Tests used:
microglia = settings: any of the concentrations tested (data not shown)
Procedure: Activated microglia and astroglia are known to produce excessive amount of NO having the potential of damaging neurons in neurodegenerative disorders. We investigated the effect of NaPB on the expression of iNOS in microglia. LPS is a prototype inducer of various proinflammatory molecules in different cell types including mouse microglia. Therefore, primary mouse microglia preincubated with different doses of NaPB for 6 h were stimulated with LPS under serum-free condition. […] We used trichostatin A (TSA) and sodium butyrate (NaBu) for this purpose.

CD11b = system: CD11b
Procedure: (§1) A) Mice were treated with NaPB (200 mg/kg body wt/d) from 3 h after the last injection of MPTP. Twenty-four h after the last injection of MPTP, ventral midbrain sections were immunostained for GFAP and CD11b. Results represent analyses of four nigral sections (two images per slide) from each of four mice. The mRNA expression GFAP and CD11b was analyzed by semi-quantitative RT-PCR (B) and quantitative real-time PCR (C).
(§2) Recently activation of glial cells is being considered as a pathological hallmark in PD and other neurodegenerative disorders. Increased expression of CD11b, the beta-integrin marker of microglia, represents microglial activation during neurodegenerative inflammation. Similarly, upon activation, astrocytes also express enhanced level of GFAP, which is considered as a marker protein for astrogliosis. We investigated if NaPB could attenuate MPTP-induced activation of glial cells in vivo in the nigra of mice.
(§3) Semi-quantitative RT-PCR analysis for proinflammatory molecules (iNOS, IL-1β and TNF-α) and glial cell markers: Total RNA was isolated from ventral midbrain using Ultraspec-II RNA reagent (Biotecx .Laboratories, Inc., Houston, Tex.) following manufacturer's protocol. To remove any contaminating genomic DNA, total RNA was digested with DNase. RT-PCR was carried out using a RT-PCR kit (Clontech., Mountain View, Calif.) and following primers.
(§4) Real-time PCR analysis: It was performed in the ABI-Prism7700 sequence detection system (Applied Biosystems, Foster City, Calif.) using TaqMan Universal Master mix and optimized concentrations of FAM-labeled probes and primers.

GFAP = system: GFAP
Procedure: as §1, §2, §3, §4

MPTP-intoxicated mice [1] = assay: HPLC analysis of striatal dopamine in acute MPTP-intoxicated mice; assay type: in vivo, mouse; settings: NaPB 200 mg/kg body wt/day from 3 h after last MPTP; 7 days; MPTP alone about 76% decrease
Procedure: Mice receiving NaPB (200 mg/kg body wt/day) from 3 h after the last injection of MPTP were sacrificed 7d after the last injection of MPTP followed by TH immunostaining of SNpc (A) and striatum (B), counting of TH-positive neurons in SNpc (C), quantification of TH-positive fibers in striatum (D), assay of neurotransmitters in striatum (E), and quantification of GSH in nigra (F). Data are means+SEM of eight mice per group. ^ap<0.0001 vs saline group; ^bp<0.0001 vs the MPTP group.
Animals and MPTP intoxications: Six- to eight-week old C57BL/6 mice were purchased from Harlan, Indianapolis, Ind. For acute MPTP intoxication, mice received four intraperitoneal (i.p.) injections of MPTP-HCl (18 mg/kg of free base; Sigma Chemical Co., St. Louis, Mo.) in saline at 2 hr intervals. Control animals received only saline.
HPLC analysis of striatal dopamine and its metabolite levels: Striatal level of dopamine, DOPAC (3,4-dihydroxyphenylacetic acid) and HVA (homovanillic acid) was quantified. […] After pH adjustment and filtration, lOul of supernatant was injected onto an Eicompak SC-3ODS column (Complete Stand-Alone HPLC-ECD System EiCOMITTEC-500 from JM Science Inc., Grand Island, N.Y.) and analyzed following manufacturer's protocol.

MPTP-intoxicated mice [2] = assay: Locomotor and open-field activities in acute MPTP-intoxicated mice; assay type: in vivo, mouse; settings: NaPB 200 mg/kg body wt/day from 3 h after last MPTP; 7 d
Procedure: Mice receiving FTI, GGTI or the combination of the two via daily intraperitoneal injection from 3h after the last injection of MPTP were tested for motor functions (B, horizontal activity; C, total distance; D, number of movement; E, stereotypy) 7 d after the last injection of MPTP followed by measuring DA in striatum (A).
The ultimate therapeutic goal of neuroprotection is to decrease functional impairment. Therefore, to examine whether NaPB protects not only against structural and neurotransmitter damage but also against functional deficits caused by MPTP, we monitored locomotor and open-field activities. MPTP injection caused marked decrease in rotorod performance (FIG. 15A), movement time (FIG. 15B), total distance (FIG. 15C), stereotypy (FIG. 15E), rearing (FIG. 15F), and horizontal activity (FIG. 15G). On the other hand, MPTP increased the rest time (FIG. 15D).
Therefore, we investigated if inhibition of either p21^ras or p21^rac alone was sufficient for the protection of the nigrostriatum. MPTP-intoxicated mice received FTI and GGTI, either separately at 10 mg/kg body wt/d or together at 5 mg/kg body wt/d, via i.p. injection from 3 h after the last injection of MPTP. […]
Behavioral analyses: Two types of behavioral experiments were conducted. […] Locomotor activity measures were assessed after baseline value comparison.

[3] = 200 mg/kg body wt/d from 3 h after last MPTP, RT-PCR, real-time PCR
[4] = 200 mg/kg body wt/d oral from 3 h after last MPTP, 24 h, immunofluorescence

Procedure for p21^ras: A) Mice were treated with NaPB (200 mg/kg body wt/d.) via gavage from 1 d prior to MPTP injection. Six h after the last injection of MPTP, activation of p21^ras and p21^rac was monitored in ventral midbrain tissues. Experiment was repeated three times each time using two animal in each group. […] Results represent three independent experiments.
A) Mice were treated with NaPB (200 mg/kg body wt/d) via gavage from 1 d prior to MPTP injection. At different h of MPTP insult, nigral punches from mice were pooled together and analyzed for the activation of p21′ (A) and the expression of iNOS mRNA (B, RT-PCR; C, real-time PGR). Experiments were repeated three times each time using two animals in each group. ^ap<0.001 vs control (Oh)-iNOS.
Therefore, in order to delineate whether glial activation-associated events happen before or after the loss of dopaminergic neurons, we performed a time-course study to monitor nigral activation of p21^ras and expression of iNOS and striatal loss of dopamine in MPTP-intoxicated mice, Micropunches from the nigra were used for monitoring p21^ras and iNOS.
Animals and MPTP intoxications: Six- to eight-week old C57BL/6 mice were purchased from Harlan, Indianapolis, Ind. […]
Activation of p21^ras and p21^rac: Activation of p21^ras was monitored. […] Then the amount of activated p21^ras was determined in GST beads by a Western blot using a p21^ras specific antibody.

Substance: sodium phenylbutyrate [NaPB]
- toxicity to microglia (MTT) (microglia): not toxic
- MPTP-induced mRNA expression of CD11b in the nigra (CD11b; [3]): suppressed
- CD11b protein expression in the nigra (CD11b; [4]): inhibition
- MPTP-induced mRNA expression of GFAP in the nigra (GFAP; [3]): suppressed
- GFAP protein expression in the nigra (GFAP; [4]): inhibition
- decrease in striatal dopamine (MPTP-intoxicated mice [1]): 20-25%
- MPTP-induced hypolocomotion (rotorod, movement time, total distance, rest time, stereotypy, rearing, horizontal activity) (MPTP-intoxicated mice [2]): significantly improved
- activation of p21^ras in the nigra, time course (p21^ras; 200 mg/kg body wt/d gavage from 1 d prior to MPTP, all time points tested (up to 24 h)): markedly inhibited
- MPTP-induced activation of p21^ras in the nigra (p21^ras; 200 mg/kg body wt/day gavage from 1 d prior to MPTP, 6 h after last MPTP): much decreased activation

Source: patent publication US20130303564A1, “METHOD FOR TREATING A NEURODEGENERATIVE DISORDER” (RUSH UNIVERSITY MEDICAL CENTER, priority 2012, published 2013)
